Test results reported in patent publication US9533985B2, “Sulfonamide derivative and medicinal use thereof” (EA Pharma Co., Ltd., priority 2012, dated 2017).

What follows are molecules tested against α4β7 integrin (Homo sapiens (Human), UniProt P13612+P26010) (assay: MAdCAM-1/α4β7 integrin binding inhibitory activity evaluation test in the presence of serum (2)). Settings: RPMI-8866 cells binding to mouse MAdCAM-1/Fc, same manner as Test (3), read-out: α4β7 Rank of activity with serum added.
Format: cell-based
Protocol: The ability of test substances to inhibit the binding of a human B cell line, RPMI-8866, which is known to express α4β7 integrin, to MAdCAM-1 was measured.
To 96-well microtiter plates, recombinant mouse MAdCAM-1/Fc (R&D systems) solution (1 μg/mL) diluted with buffer A (carbonate buffer, pH 9.6) was added at 50 μL/well, followed by incubation at 4° C. overnight. After washing once with PBS, Block Ace (Snow Brand Milk Products Company, Limited) was added at 150 μL/well, followed by incubation at room temperature for 2 hours. After removal, washing was conducted once with PBS.
100 μL of each test substance diluted with a binding buffer (DMEM containing 40 mM HEPES, 0.2% BSA, and 4 mM MnCl2) to various concentrations and 100 μL of RPMI-8866 cells (2×10^6 cell/mL) were added to plates coated with MAdCAM-1/Fc (5×10^5 cells/well) with human serum being contained at a final concentration of 50%, followed by incubation at 30° C. for 15 minutes to 60 minutes. After the cells were bound to each well, unbound cells were removed by washing with PBS. To the plates, buffer C (PBS containing 1.5% Triton X-100) was added at 50 μL/well to lyse the bound RPMI-8866 cells. To 30 μL of the cell lysate, 30 μL of Substrate Buffer (Promega, CytoTox 96 Non-Radioactive Cytotoxicity Assay) was added, and the reaction was allowed to proceed at room temperature in a dark place for 30 minutes. To each well, 30 μL of Stop Solution (Promega, CytoTox 96 Non-Radioactive Cytotoxicity Assay) was added, and the absorbance at 490 nm was measured by using a plate reader. Here, by the obtained absorbance, the activity of the lactate dehydrogenase (LDH) dissolved into the supernatant of each well was detected. In other words, the absorbance was proportional to the number of the RPMI-8866 cells bound to MAdCAM-1 and remaining on the plate. The test was duplicated. The binding ratios of the cells at various concentrations were determined, with the absorbance of a well containing no test substance taken as 100%. Then, the concentration IC50, at which 50% binding inhibition was achieved, was calculated.
The MAdCAM-1/α4β7 integrin binding inhibitory activity in the presence of serum was measured in the same manner as in Test (3) described above. […] The VCAM-1/α4β1 integrin binding inhibitory activity evaluation test and the MAdCAM-1/α4β7 integrin binding inhibitory activity evaluation test were carried out according to the methods described in Tests (1) and (2) described above.

Sequence of α4β7 integrin (P13612 34-1032): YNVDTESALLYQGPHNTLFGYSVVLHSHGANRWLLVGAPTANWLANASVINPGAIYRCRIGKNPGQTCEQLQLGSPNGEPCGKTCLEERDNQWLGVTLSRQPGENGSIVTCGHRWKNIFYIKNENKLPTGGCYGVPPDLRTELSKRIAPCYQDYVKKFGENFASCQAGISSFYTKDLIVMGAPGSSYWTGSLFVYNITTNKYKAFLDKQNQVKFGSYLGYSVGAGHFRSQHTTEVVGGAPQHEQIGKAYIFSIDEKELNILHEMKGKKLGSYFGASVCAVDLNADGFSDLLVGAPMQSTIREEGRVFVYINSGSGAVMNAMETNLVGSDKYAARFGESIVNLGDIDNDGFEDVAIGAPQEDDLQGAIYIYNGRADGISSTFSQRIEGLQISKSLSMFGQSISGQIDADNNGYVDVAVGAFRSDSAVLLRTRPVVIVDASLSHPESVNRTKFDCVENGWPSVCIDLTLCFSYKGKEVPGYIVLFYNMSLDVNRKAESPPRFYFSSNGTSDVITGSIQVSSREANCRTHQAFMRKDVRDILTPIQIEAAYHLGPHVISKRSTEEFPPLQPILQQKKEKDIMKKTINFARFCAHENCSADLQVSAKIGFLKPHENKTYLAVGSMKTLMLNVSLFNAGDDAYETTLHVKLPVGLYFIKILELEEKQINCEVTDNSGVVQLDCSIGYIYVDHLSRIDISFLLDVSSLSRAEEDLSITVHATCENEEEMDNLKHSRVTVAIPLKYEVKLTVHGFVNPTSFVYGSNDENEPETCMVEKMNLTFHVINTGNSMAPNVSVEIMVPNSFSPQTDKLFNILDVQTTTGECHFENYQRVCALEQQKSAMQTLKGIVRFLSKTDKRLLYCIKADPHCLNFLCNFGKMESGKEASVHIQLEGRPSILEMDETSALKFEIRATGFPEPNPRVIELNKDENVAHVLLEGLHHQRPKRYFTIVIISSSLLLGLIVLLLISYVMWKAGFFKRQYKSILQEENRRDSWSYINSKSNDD
Sequence of α4β7 integrin (P26010 20-798): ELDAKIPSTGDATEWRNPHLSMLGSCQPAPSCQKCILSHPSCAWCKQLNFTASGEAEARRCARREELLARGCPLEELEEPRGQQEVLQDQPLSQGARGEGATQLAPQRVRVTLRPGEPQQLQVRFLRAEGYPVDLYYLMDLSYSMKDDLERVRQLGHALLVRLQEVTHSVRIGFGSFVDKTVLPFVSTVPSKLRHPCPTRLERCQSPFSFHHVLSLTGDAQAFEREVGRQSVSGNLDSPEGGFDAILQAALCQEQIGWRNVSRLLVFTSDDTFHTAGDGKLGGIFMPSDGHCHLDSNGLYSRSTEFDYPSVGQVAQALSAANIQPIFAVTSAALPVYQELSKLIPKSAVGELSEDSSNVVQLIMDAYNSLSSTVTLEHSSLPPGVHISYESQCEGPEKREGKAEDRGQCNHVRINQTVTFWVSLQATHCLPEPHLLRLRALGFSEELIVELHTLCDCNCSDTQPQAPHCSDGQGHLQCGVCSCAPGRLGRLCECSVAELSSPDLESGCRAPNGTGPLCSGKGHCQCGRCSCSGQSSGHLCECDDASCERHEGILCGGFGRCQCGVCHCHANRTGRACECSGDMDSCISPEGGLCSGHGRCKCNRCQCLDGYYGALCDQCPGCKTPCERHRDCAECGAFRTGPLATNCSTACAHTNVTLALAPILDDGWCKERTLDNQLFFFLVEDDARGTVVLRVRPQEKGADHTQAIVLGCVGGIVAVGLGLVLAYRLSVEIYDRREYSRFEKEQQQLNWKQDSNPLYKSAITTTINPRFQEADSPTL

IC50, ≤ 10 nM:
CNCc1ccc(S(=O)(=O)Nc2cc(F)c(C(=O)N[C@@H](Cc3ccc(-n4c(=O)ccn(C)c4=O)cc3)C(=O)O)c(F)c2)cc1 [Example 176, N-{2,6-Difluoro-4-[({4-[(methylamino)methyl]phenyl}sulfonyl)amino]benzoyl}-4-(3-methyl-2,6-dioxo-3,6-dihydropyrimidin-1(2H)-yl)-L-phenylalanine]
Cn1c(=O)n(-c2ccc(C[C@H](NC(=O)c3ccc(NS(=O)(=O)c4cc[n+]([O-])cc4)cc3F)C(=O)O)cc2)c(=O)c2cc[n+]([O-])cc21 [Example 179, (2S)-2-[[2-Fluoro-4-[(1-oxidopyridin-1-ium-4-yl)sulfonylamino]benzoyl]amino]-3-[4-(1-methyl-7-oxido-2,4-dioxo-pyrido[3,4-d]pyrimidin-7-ium-3-yl)phenyl]propanoic Acid]
Cc1cc(CNC(C)(C)C)ccc1S(=O)(=O)Nc1ccc(C(=O)N[C@@H](Cc2ccc(-n3c(=O)c4ccncc4n(C)c3=O)cc2)C(=O)O)c(F)c1 [Example 180, N-{4-[({4-[(tert-Butylamino)methyl]-2-methylphenyl}sulfonyl)amino]-2-fluorobenzoyl}-4-(1-methyl-2,4-dioxo-1,4-dihydropyrido[3,4-d]pyrimidin-3(2H)-yl)-L-phenylalanine]

IC50, 50 to 200 nM:
Cn1c(=O)n(-c2ccc(C[C@H](NC(=O)c3cc(F)c(NS(=O)(=O)c4ccc(-c5ncccn5)cn4)cc3F)C(=O)O)nc2)c(=O)c2ccncc21 [Example 222, N-(2,5-Difluoro-4-{[(5-pyrimidin-2-ylpyridin-2-yl)sulfonyl]amino}benzoyl)-3-[5-(1-methyl-2,4-dioxo-1,4-dihydropyrido[3,4-d]pyrimidin-3(2H)-yl)pyridin-2-yl]-L-alanine]

IC50, 10 to 50 nM:
CNCc1ccc(S(=O)(=O)Nc2ccc(C(=O)N[C@@H](Cc3ccc(-n4c(=O)c5ccncc5n(C)c4=O)cn3)C(=O)O)c(F)c2)cc1 [Example 177, N-{2-Fluoro-4-[({4-[(methylamino)methyl]phenyl}sulfonyl)amino]benzoyl}-3-[5-(1-methyl-2,4-dioxo-1,4-dihydropyrido[3,4-d]pyrimidin-3(2H)-yl)pyridin-2-yl]-L-alanine]
Cn1c(=O)n(-c2ccc(C[C@H](NC(=O)c3c(F)cc(NS(=O)(=O)c4ccc(-c5ccsc5)cc4)cc3F)C(=O)O)nc2)c(=O)c2ccncc21 [Example 178, N-[2,6-Difluoro-4-({[4-(3-thienyl)phenyl]sulfonyl}amino)benzoyl]-3-[5-(1-methyl-2,4-dioxo-1,4-dihydropyrido[3,4-d]pyrimidin-3(2H)-yl)pyridin-2-yl]-L-alanine]
Cc1cc(CNC2CCCC2)ccc1S(=O)(=O)Nc1ccc(C(=O)N[C@@H](Cc2ccc(-n3c(=O)c4ccncc4n(C)c3=O)cc2)C(=O)O)c(F)c1 [Example 181, N-{4-[({4-[(Cyclopentylamino)methyl]-2-methylphenyl}sulfonyl)amino]-2-fluorobenzoyl}-4-(1-methyl-2,4-dioxo-1,4-dihydropyrido[3,4-d]pyrimidin-3(2H)-yl)-L-phenylalanine]
Cn1c(=O)n(-c2ccc(C[C@H](NC(=O)c3ccc(NS(=O)(=O)c4ccc[nH]4)cc3F)C(=O)O)nc2)c(=O)c2ccncc21 [Example 182, N-{2-Fluoro-4-[(1H-pyrrol-2-yl-sulfonyl)amino]benzoyl}-3-[5-(1-methyl-2,4-dioxo-1,4-dihydropyrido[3,4-d]pyrimidin-3(2H)-yl)pyridin-2-yl]-L-alanine]
Cn1c(=O)n(-c2ccc(C[C@H](NC(=O)c3ncc(NS(=O)(=O)c4ccco4)cc3F)C(=O)O)cc2)c(=O)c2ccncc21 [Example 183, N-({3-Fluoro-5-[(2-furylsulfonyl)amino]pyridin-2-yl}carbonyl)-4-(1-methyl-2,4-dioxo-1,4-dihydropyrido[3,4-d]pyrimidin-3(2H)-yl)-L-phenylalanine]
Cn1c(=O)n(-c2ccc(C[C@H](NC(=O)c3ncc(NS(=O)(=O)c4ccncc4)cc3F)C(=O)O)cc2)c(=O)c2ccncc21 [Example 184, N-({3-Fluoro-5-[(pyridin-4-yl-sulfonyl)amino]pyridin-2-yl}carbonyl)-4-(1-methyl-2,4-dioxo-1,4-dihydropyrido[3,4-d]pyrimidin-3(2H)-yl)-L-phenylalanine]
Cn1c(=O)n(-c2ccc(C[C@H](NC(=O)c3c(F)cc(NS(=O)(=O)c4ccccc4O)cc3F)C(=O)O)nc2)c(=O)c2ccncc21 [Example 185, N-(2,6-Difluoro-4-{[(2-hydroxyphenyl)sulfonyl]amino}benzoyl)-3-[5-(1-methyl-2,4-dioxo-1,4-dihydropyrido[3,4-d]pyrimidin-3(2H)-yl)pyridin-2-yl]-L-alanine]
Cn1c(=O)n(-c2ccc(C[C@H](NC(=O)c3cc(F)c(NS(=O)(=O)c4cccs4)cc3F)C(=O)O)cc2)c(=O)c2ccncc21 [Example 213, N-{2,5-Difluoro-4-[(2-thienylsulfonyl)amino]benzoyl}-4-(1-methyl-2,4-dioxo-1,4-dihydropyrido[3,4-d]pyrimidin-3(2H)-yl)-L-phenylalanine]
CCOc1ccccc1S(=O)(=O)Nc1cc(F)c(C(=O)N[C@@H](Cc2ccc(-n3c(=O)c4ccncc4n(C)c3=O)cc2)C(=O)O)c(F)c1 [Example 214, N-(4-{[(2-Ethoxyphenyl)sulfonyl]amino}-2,6-difluorobenzoyl)-4-(1-methyl-2,4-dioxo-1,4-dihydropyrido[3,4-d]pyrimidin-3(2H)-yl)-L-phenylalanine]
Cn1c(=O)n(-c2ccc(C[C@H](NC(=O)c3cc(F)c(NS(=O)(=O)c4ccc(-c5cncnc5)cc4)cc3F)C(=O)O)nc2)c(=O)c2ccncc21 [Example 215, N-(2,5-Difluoro-4-{[(4-pyrimidin-5-ylphenyl)sulfonyl]amino}benzoyl)-3-[5-(1-methyl-2,4-dioxo-1,4-dihydropyrido[3,4-d]pyrimidin-3(2H)-yl)pyridin-2-yl]-L-alanine]
Cn1ccc(=O)n(-c2ccc(C[C@H](NC(=O)c3cc(F)c(NS(=O)(=O)c4ccc(-c5cncnc5)cc4)cc3F)C(=O)O)cc2)c1=O [Example 216, N-(2,5-Difluoro-4-{[(4-pyrimidin-5-ylphenyl)sulfonyl]amino}benzoyl)-4-(3-methyl-2,6-dioxo-3,6-dihydropyrimidin-1(2H)-yl)-L-phenylalanine]
Cn1c(=O)n(-c2ccc(C[C@H](NC(=O)c3cc(F)c(NS(=O)(=O)c4ccc(-n5cncn5)cn4)cc3F)C(=O)O)nc2)c(=O)c2ccncc21 [Example 217, N-[2,5-Difluoro-4-({[5-(1H-1,2,4-triazol-1-yl)pyridin-2-yl]sulfonyl}amino)benzoyl]-3-[5-(1-methyl-2,4-dioxo-1,4-dihydropyrido[3,4-d]pyrimidin-3(2H)-yl)pyridin-2-yl]-L-alanine]
Cn1c(=O)n(-c2ccc(C[C@H](NC(=O)c3cc(F)c(NS(=O)(=O)c4ccc(-n5cnnn5)cc4)cc3F)C(=O)O)nc2)c(=O)c2ccncc21 [Example 218, N-[2,5-Difluoro-4-({[4-(1H-tetrazol-1-yl)phenyl]sulfonyl}amino)benzoyl]-3-[5-(1-methyl-2,4-dioxo-1,4-dihydropyrido[3,4-d]pyrimidin-3(2H)-yl)pyridin-2-yl]-L-alanine]
Cn1c(=O)n(-c2ccc(C[C@H](NC(=O)c3cc(F)c(NS(=O)(=O)c4ccc(-n5cnnc5)cc4)cc3F)C(=O)O)nc2)c(=O)c2ccncc21 [Example 219, N-[2,5-Difluoro-4-({[4-(4H-1,2,4-triazol-4-yl)phenyl]sulfonyl}amino)benzoyl]-3-[5-(1-methyl-2,4-dioxo-1,4-dihydropyrido[3,4-d]pyrimidin-3(2H)-yl)pyridin-2-yl]-L-alanine]
Cn1c(=O)n(-c2ccc(C[C@H](NC(=O)c3cc(F)c(NS(=O)(=O)c4ccc(-c5cncnc5)cn4)cc3F)C(=O)O)nc2)c(=O)c2ccncc21 [Example 220, N-(2,5-Difluoro-4-{[(5-pyrimidin-5-ylpyridin-2-yl)sulfonyl]amino}benzoyl)-3-[5-(1-methyl-2,4-dioxo-1,4-dihydropyrido[3,4-d]pyrimidin-3(2H)-yl)pyridin-2-yl]-L-alanine]
Cn1c(=O)n(-c2ccc(C[C@H](NC(=O)c3cc(F)c(NS(=O)(=O)c4ccc(-n5cncn5)cc4)cc3F)C(=O)O)cn2)c(=O)c2ccncc21 [Example 221, N-[2,5-Difluoro-4-({[4-(1H-1,2,4-triazol-1-yl)phenyl]sulfonyl}amino)benzoyl]-3-[6-(1-methyl-2,4-dioxo-1,4-dihydropyrido[3,4-d]pyrimidin-3(2H)-yl)pyridin-3-yl]-L-alanine]
